Laboratory results: ChEMBL document CHEMBL4190397, “Design and Synthesis of Novel and Selective Glycine Transporter-1 (GlyT1) Inhibitors with Memory Enhancing Properties” (J Med Chem, 2018)

Tests used:
[1] = target: T1, Sodium- and chloride-dependent glycine transporter 1 (Rattus norvegicus, UniProt P28572); test: Inhibition of GlyT1 in primary rat cortical neurons assessed as reduction in [14C]glycine uptake after 2 hrs by microbeta scintillation counting method
T1 sequence (P28572 whole entry): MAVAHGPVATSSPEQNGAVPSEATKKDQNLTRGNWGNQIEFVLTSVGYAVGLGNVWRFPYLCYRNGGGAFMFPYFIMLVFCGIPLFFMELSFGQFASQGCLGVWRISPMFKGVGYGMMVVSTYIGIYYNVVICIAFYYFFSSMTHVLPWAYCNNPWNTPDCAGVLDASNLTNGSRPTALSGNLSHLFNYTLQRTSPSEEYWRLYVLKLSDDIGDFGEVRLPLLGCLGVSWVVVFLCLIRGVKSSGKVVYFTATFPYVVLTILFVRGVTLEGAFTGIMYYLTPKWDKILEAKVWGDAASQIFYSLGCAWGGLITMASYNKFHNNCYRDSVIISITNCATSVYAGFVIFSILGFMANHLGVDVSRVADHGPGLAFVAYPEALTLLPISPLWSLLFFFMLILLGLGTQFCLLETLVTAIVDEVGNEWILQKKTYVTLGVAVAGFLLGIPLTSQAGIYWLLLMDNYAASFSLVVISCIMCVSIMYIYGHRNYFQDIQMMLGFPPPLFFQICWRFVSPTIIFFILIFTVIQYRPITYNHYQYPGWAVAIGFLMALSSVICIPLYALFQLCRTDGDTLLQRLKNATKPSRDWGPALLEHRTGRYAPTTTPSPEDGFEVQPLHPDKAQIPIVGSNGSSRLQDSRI

[2] = target: T2, Sodium- and chloride-dependent glycine transporter 2 (Homo sapiens, UniProt Q9Y345); test: Inhibition of recombinant human GlyT2 expressed in HEK293 cells assessed as reduction in [14C]glycine uptake after 2 hrs by microbeta scintillation counting method; assay type: cell-based
T2 sequence (Q9Y345 whole entry): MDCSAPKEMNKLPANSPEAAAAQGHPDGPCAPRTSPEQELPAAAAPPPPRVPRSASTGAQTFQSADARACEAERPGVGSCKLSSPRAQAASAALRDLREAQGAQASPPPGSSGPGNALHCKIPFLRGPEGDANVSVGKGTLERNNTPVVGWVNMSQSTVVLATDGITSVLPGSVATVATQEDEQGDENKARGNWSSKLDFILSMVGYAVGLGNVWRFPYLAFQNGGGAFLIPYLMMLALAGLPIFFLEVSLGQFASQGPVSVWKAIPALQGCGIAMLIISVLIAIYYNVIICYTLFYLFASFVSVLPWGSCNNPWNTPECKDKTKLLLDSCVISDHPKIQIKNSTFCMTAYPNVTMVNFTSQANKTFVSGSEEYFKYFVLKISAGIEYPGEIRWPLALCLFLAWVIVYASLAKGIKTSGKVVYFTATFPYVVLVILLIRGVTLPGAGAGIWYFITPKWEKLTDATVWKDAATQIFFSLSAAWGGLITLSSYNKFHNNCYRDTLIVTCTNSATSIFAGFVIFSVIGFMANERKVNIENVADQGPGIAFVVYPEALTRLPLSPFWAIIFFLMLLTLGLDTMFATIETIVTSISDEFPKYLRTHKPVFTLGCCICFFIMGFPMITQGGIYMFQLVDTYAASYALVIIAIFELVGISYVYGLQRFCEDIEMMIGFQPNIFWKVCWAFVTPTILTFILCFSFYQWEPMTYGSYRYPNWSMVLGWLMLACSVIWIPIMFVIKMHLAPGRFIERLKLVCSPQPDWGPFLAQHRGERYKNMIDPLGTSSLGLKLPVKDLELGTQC

Cytochrome P450 3A4 = Cytochrome P450 3A4 (Homo sapiens, UniProt P08684); test: Inhibition of CYP3A4 in human liver microsomes using midazolam as substrate measured after 7 mins in presence of NADPH by LC-MS/MS analysis
[3] = Apparent permeability from basolateral to apical side in MDCK-MDR1 cells monolayer at 5 uM after 60 mins by LC-MS/MS analysis; settings: dog
Cytochrome P450 2D6 = Cytochrome P450 2D6 (Homo sapiens, UniProt P10635); test: Inhibition of CYP2D6 in human liver microsomes using dextromethorphan as substrate measured after 10 mins in presence of NADPH by LC-MS/MS analysis
[4] = target: Voltage-gated inwardly rectifying potassium channel KCNH2 (Homo sapiens, UniProt Q12809); test: Inhibition of human ERG expressed in CHO cells at 10 nM to 10 uM at holding potential of -80 mV measured after 5 mins by QPatch automated patch clamp electrophysiology method
Cytochrome P450 1A2 = target: T3, Cytochrome P450 1A2 (Homo sapiens, UniProt P05177); test: Inhibition of CYP1A2 in human liver microsomes using phenacetin as substrate measured after 10 mins in presence of NADPH by LC-MS/MS analysis
T3 sequence (P05177 whole entry): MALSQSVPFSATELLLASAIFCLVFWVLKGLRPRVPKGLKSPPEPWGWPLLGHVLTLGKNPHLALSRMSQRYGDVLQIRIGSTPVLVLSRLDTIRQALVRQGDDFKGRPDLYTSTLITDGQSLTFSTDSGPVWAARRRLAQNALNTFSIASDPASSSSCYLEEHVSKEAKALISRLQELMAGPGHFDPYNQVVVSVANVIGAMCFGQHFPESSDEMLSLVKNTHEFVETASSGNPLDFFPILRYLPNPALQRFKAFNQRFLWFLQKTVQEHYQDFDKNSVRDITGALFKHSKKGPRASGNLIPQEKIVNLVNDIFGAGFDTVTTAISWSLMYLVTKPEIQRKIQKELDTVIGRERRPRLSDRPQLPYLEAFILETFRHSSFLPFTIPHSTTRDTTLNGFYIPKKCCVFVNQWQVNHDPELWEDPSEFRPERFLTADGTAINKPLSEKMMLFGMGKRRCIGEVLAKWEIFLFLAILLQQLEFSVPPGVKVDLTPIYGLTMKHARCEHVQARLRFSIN

[5] = target: T4, Sodium- and chloride-dependent glycine transporter 1 (Homo sapiens, UniProt P48067); test: Inhibition of recombinant human GlyT1c expressed in HEK293 cells assessed as reduction in [14C]glycine uptake after 2 hrs by microbeta scintillation counting method; assay type: cell-based
T4 sequence (P48067 whole entry): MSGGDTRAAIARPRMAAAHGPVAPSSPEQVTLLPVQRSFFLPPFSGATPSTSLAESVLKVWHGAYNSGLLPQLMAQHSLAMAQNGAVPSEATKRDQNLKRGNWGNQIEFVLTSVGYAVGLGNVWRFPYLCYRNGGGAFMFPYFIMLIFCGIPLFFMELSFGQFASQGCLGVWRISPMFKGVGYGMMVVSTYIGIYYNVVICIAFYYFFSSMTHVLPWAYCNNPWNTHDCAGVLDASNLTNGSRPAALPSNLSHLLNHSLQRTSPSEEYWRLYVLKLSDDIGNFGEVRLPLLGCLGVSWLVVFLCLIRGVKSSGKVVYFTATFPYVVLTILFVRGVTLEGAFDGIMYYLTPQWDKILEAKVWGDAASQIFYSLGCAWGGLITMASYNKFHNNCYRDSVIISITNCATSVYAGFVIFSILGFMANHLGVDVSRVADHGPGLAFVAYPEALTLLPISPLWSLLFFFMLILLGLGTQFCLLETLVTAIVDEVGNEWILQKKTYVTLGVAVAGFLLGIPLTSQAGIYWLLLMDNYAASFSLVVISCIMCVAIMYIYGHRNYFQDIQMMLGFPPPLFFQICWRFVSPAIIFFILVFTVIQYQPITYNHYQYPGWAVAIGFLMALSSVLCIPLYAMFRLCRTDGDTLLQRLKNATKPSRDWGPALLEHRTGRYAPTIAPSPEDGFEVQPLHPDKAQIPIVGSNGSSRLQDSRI

[6] = Apparent permeability from apical to basolateral side in MDCK-MDR1 cells monolayer at 5 uM after 60 mins by LC-MS/MS analysis; settings: dog
[7] = Intrinsic clearance in rat liver microsomes at 1 uM assessed per mg protein at 37 degC up to 30 mins in presence of NADPH by HPLC-MS analysis; assay type: ADME, microsome; settings: read-out: CLH
[8] = Efflux ratio of apparent permeability from basolateral to apical over apical to basolateral side in MDCK-MDR1 cells at 5 uM after 60 mins by LC-MS/MS analysis; settings: dog
Cytochrome P450 2C9 = Cytochrome P450 2C9 (Homo sapiens, UniProt P11712); test: Inhibition of CYP2C9 in human liver microsomes using diclofenac as substrate measured after 10 mins in presence of NADPH by LC-MS/MS analysis
[9] = Intrinsic clearance in human liver microsomes at 1 uM assessed per mg protein at 37 degC up to 60 mins in presence of NADPH by HPLC-MS analysis; assay type: ADME, microsome; settings: read-out: CLH
Cytochrome P450 2C19 = Cytochrome P450 2C19 (Homo sapiens, UniProt P33261); test: Inhibition of CYP2C19 in human liver microsomes using S-mephenytoin as substrate measured after 10 mins in presence of NADPH by LC-MS/MS analysis
Sequence of Cytochrome P450 2C19 (P33261 whole entry): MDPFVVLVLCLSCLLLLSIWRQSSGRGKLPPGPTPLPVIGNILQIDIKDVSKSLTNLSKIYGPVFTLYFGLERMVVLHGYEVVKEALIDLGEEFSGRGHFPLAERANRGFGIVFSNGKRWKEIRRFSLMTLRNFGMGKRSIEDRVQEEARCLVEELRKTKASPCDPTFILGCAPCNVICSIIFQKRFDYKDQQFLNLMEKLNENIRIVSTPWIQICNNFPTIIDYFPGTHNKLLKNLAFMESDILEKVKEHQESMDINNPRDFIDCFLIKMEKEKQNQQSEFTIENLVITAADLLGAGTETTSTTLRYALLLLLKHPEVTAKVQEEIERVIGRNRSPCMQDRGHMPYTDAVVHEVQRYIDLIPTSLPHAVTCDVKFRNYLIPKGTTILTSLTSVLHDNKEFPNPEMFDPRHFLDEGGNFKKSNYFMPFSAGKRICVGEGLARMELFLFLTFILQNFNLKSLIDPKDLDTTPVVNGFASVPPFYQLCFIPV

Sequence of Cytochrome P450 3A4 (P08684 whole entry): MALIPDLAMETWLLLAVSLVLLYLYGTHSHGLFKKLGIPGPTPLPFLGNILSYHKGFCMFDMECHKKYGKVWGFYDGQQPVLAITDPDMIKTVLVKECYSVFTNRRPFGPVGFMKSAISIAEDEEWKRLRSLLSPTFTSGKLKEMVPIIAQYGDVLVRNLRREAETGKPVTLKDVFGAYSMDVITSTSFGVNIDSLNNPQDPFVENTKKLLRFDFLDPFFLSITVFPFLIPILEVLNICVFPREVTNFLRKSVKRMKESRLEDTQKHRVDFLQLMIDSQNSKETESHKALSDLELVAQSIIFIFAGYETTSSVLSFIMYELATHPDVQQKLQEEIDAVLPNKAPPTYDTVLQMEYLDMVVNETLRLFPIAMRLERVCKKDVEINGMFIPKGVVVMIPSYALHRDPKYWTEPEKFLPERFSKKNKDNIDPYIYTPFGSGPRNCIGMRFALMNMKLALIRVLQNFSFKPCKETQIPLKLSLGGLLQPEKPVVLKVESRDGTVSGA
Sequence of Cytochrome P450 2D6 (P10635 whole entry): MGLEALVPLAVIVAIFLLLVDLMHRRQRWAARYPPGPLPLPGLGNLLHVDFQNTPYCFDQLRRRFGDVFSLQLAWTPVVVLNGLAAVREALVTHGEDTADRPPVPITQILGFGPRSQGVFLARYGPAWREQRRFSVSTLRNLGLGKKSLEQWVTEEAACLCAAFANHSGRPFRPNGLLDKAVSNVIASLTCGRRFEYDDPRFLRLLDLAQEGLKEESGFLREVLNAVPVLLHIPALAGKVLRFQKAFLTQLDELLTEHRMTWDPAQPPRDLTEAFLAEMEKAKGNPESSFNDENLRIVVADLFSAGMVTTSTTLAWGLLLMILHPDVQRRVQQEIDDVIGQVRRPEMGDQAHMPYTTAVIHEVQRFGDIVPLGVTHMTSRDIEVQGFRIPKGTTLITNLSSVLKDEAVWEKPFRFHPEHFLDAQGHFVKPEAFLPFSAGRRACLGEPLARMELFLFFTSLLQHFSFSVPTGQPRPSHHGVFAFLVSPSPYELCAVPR
Sequence of Voltage-gated inwardly rectifying potassium channel KCNH2 (Q12809 whole entry): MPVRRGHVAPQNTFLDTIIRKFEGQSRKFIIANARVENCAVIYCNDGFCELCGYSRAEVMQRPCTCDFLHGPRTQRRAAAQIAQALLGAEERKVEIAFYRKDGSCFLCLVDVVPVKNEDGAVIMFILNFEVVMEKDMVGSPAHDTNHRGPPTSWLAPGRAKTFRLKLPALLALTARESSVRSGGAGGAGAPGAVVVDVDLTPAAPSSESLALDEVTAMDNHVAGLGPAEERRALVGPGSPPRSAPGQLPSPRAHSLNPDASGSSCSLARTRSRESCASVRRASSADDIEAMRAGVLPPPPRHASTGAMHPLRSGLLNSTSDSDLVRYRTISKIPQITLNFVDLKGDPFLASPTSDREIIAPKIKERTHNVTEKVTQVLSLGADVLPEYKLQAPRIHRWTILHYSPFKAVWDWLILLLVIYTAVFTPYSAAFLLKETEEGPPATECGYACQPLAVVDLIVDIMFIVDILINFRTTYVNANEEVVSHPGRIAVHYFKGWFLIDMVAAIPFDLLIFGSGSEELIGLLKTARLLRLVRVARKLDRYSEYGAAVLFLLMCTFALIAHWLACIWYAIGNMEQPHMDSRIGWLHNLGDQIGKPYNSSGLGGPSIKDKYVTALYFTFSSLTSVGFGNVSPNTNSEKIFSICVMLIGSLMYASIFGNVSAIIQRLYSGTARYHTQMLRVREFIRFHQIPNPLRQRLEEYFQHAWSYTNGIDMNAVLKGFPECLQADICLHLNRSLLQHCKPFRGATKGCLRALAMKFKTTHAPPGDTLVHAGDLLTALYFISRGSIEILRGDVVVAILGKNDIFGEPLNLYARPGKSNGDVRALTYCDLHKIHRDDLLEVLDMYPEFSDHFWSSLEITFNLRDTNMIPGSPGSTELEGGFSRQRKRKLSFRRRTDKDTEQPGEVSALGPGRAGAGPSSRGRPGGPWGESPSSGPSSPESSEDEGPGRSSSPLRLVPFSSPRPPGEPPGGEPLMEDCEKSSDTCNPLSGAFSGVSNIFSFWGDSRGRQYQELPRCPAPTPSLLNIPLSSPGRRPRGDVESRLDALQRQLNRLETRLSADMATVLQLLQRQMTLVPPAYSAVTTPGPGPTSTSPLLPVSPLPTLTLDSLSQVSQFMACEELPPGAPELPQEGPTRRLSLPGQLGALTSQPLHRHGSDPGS
Sequence of Cytochrome P450 2C9 (P11712 whole entry): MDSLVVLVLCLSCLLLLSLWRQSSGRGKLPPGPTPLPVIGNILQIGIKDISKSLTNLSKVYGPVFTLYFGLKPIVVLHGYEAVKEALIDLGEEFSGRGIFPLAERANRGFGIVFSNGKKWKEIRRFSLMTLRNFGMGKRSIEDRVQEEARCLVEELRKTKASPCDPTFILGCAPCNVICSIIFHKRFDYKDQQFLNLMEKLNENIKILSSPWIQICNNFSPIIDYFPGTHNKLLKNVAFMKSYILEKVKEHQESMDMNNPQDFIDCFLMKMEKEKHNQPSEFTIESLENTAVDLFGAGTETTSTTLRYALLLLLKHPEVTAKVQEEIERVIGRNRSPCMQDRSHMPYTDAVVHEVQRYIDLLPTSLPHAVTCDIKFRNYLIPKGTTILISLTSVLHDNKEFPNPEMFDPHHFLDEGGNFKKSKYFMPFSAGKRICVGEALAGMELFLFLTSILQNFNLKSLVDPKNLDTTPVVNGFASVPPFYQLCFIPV

IC50 [1] [nM] | IC50 [2] [nM] | IC50 [5] [nM] | SMILES | further results
12 | > 10000 |  | CS(=O)(=O)c1ccc(N2CCC(F)(F)CC2)c(C(=O)N2Cc3cn(-c4ccccc4F)nc3C2)c1 | 
8 | > 10000 | 27 | CCS(=O)(=O)c1ccc(O[C@@H](C)C(F)(F)F)c(C(=O)N2Cc3cn(-c4cncc(F)c4)nc3C2)c1 | IC50 (Cytochrome P450 3A4): > 10000 nM; Papp B→A at 1 h, 5 µM [3]: 99 ×10⁻⁶ cm/s; IC50 (Cytochrome P450 2D6): > 10000 nM; IC50 [4]: > 10000 nM; IC50 (Cytochrome P450 1A2): > 10000 nM; Papp A→B at 1 h, 5 µM [6]: 5.8 ×10⁻⁶ cm/s; microsomal CLint at 1 µM [7]: 5.4 µL/min/mg; efflux ratio at 1 h, 5 µM [8]: 17.2; IC50 (Cytochrome P450 2C9): > 10000 nM; microsomal CLint at 1 µM [9]: 1.3 µL/min/mg; IC50 (Cytochrome P450 2C19): > 10000 nM
9 | > 10000 | 29 | CCS(=O)(=O)c1ccc(O[C@@H](C)C(F)(F)F)c(C(=O)N2Cc3cn(-c4ccccc4F)nc3C2)c1 | IC50 (Cytochrome P450 3A4): > 10000 nM; Papp B→A at 1 h, 5 µM [3]: 51.9 ×10⁻⁶ cm/s; IC50 (Cytochrome P450 2D6): > 10000 nM; IC50 [4]: > 10000 nM; IC50 (Cytochrome P450 1A2): > 10000 nM; Papp A→B at 1 h, 5 µM [6]: 18 ×10⁻⁶ cm/s; efflux ratio at 1 h, 5 µM [8]: 2.9; IC50 (Cytochrome P450 2C9): > 10000 nM; microsomal CLint at 1 µM [9]: 0.9 µL/min/mg; IC50 (Cytochrome P450 2C19): > 10000 nM
27 | > 10000 | 18 | Cc1cc(-n2cc3c(n2)CN(C(=O)c2cc(C#N)ccc2O[C@@H](C)C(F)(F)F)C3)ccn1 | 
79 | > 10000 | 406 | CC(C)S(=O)(=O)c1ccc(O[C@@H](C)C(F)(F)F)c(C(=O)N2Cc3cn(-c4ccccc4)nc3C2)c1 | IC50 (Cytochrome P450 3A4): > 10000 nM; Papp B→A at 1 h, 5 µM [3]: 123 ×10⁻⁶ cm/s; IC50 (Cytochrome P450 2D6): > 10000 nM; IC50 [4]: > 10000 nM; IC50 (Cytochrome P450 1A2): > 10000 nM; Papp A→B at 1 h, 5 µM [6]: 56.6 ×10⁻⁶ cm/s; microsomal CLint at 1 µM [7]: 1.8 µL/min/mg; efflux ratio at 1 h, 5 µM [8]: 2.2; IC50 (Cytochrome P450 2C9): > 10000 nM; microsomal CLint at 1 µM [9]: 10 µL/min/mg; IC50 (Cytochrome P450 2C19): > 10000 nM
10 | > 10000 |  | CS(=O)(=O)c1ccc(N2CCC(F)(F)CC2)c(C(=O)N2Cc3cn(-c4cncc(F)c4)nc3C2)c1 | 
4 | > 10000 | 7 | Cc1cc(-n2cc3c(n2)CN(C(=O)c2cc(S(C)(=O)=O)ccc2N2CCC(F)(F)CC2)C3)ccn1 | 
10 | > 10000 | 6 | CS(=O)(=O)c1ccc(-c2cccc(F)c2)c(C(=O)N2Cc3cn(-c4cncc(F)c4)nc3C2)c1 | 
331 |  | 210 | C[C@H](Oc1ccc(C#N)cc1C(=O)N1Cc2cn(C3CCCC3)nc2C1)C(F)(F)F | 
78 | > 10000 | 55 | Cc1cc(-n2cc3c(n2)CN(C(=O)c2cc(C#N)ccc2-c2cccc(F)c2)C3)ccn1 | 
2 | > 10000 | 4 | Cc1cc(-n2cc3c(n2)CN(C(=O)c2cc(S(C)(=O)=O)ccc2-c2cccc(F)c2)C3)ccn1 | 
161 | > 10000 | 105 | CC(C)Oc1ccc(C#N)cc1C(=O)N1Cc2cn(-c3ccccc3)nc2C1 | 
12 | > 10000 | 10 | CS(=O)(=O)c1ccc(-c2cccc(F)c2)c(C(=O)N2Cc3cn(-c4ccccc4F)nc3C2)c1 | 
4 | > 10000 |  | Cc1cc(-n2cc3c(n2)CN(C(=O)c2cc(C#N)ccc2N2CCC(F)(F)CC2)C3)ccn1 | 
619 | > 10000 |  | N#Cc1ccc(-c2cccc(F)c2)c(C(=O)N2Cc3cn(-c4cncc(F)c4)nc3C2)c1 | 
4 | > 10000 | 12 | CCS(=O)(=O)c1ccc(O[C@@H](C)C(F)(F)F)c(C(=O)N2Cc3cn(-c4ccnc(C)c4)nc3C2)c1 | 
3 | > 10000 | 12 | Cc1cc(-n2cc3c(n2)CN(C(=O)c2cc(S(C)(=O)=O)ccc2O[C@@H](C)C(F)(F)F)C3)ccn1 | 
12 | > 10000 | 23 | Cc1cccc(-n2cc3c(n2)CN(C(=O)c2cc(S(C)(=O)=O)ccc2O[C@@H](C)C(F)(F)F)C3)c1 | 
18 | > 10000 | 23 | CC(C)Oc1ccc(S(C)(=O)=O)cc1C(=O)N1Cc2cn(-c3ccccc3F)nc2C1 | 
183 | > 10000 | 113 | CC(C)Oc1ccc(C#N)cc1C(=O)N1Cc2cn(-c3cncc(F)c3)nc2C1 | 
